In ChEMBL document CHEMBL1137453, “Structure-activity relationship and biological property of cortistatins, anti-angiogenic spongean steroidal alkaloids” (Bioorg Med Chem, 2007):

Assays:
[1] = Antiproliferative activity against human KB3-1 cells by WST-8 colorimetric assay; assay type: functional, cell-based; settings: KB 3-1
[2] = Antiproliferative activity against mouse Neuro-2A cells by WST-8 colorimetric assay; assay type: functional, cell-based; settings: N2a
NHDF = test: Antiproliferative activity against NHDF cells by WST-8 colorimetric assay; assay type: functional, cell-based; settings: Homo sapiens
K562 = test: Antiproliferative activity against human K562 cells by WST-8 colorimetric assay; assay type: functional, cell-based
HUVEC = test: Antiproliferative activity against HUVEC cells by WST-8 colorimetric assay; assay type: cell-based; settings: Homo sapiens

| IC50 (K562) [µM] | SMILES | IC50 [1] [µM] | IC50 [2] [µM] | IC50 (NHDF) [µM] | IC50 (HUVEC) [µM] |
| --- | --- | --- | --- | --- | --- |
| > 300 | CN(C)[C@H]1C[C@@]23CC[C@@]4(O2)C(=CC[C@@]2(C)[C@H]4CC(=O)[C@]2(O)c2ccc4ccncc4c2)C=C3[C@@H](O)[C@@H]1O | 55 | > 300 | > 300 | 0.15 |
| 200 | CN(C)[C@H]1C[C@@]23CC[C@@]4(O2)C(=CC[C@@]2(C)[C@H]4C[C@H](O)[C@@H]2c2ccc4ccncc4c2)C=C3[C@@H](O)[C@@H]1O | 120 | 160 | > 300 | 1.1 |
| 2.8 | CC1CN(C)CCC1CCC(C)[C@H]1CC[C@@H]2[C@]1(C)CCC1=CC3=CC[C@@H](N(C)C)C[C@]34CC[C@@]12O4 (stereo not given in full) [CORTISTATIN E] | 2.5 | 1.9 | 1.9 | 0.45 |
| 4 | CC1CN(C)CCC1CCC(C)[C@H]1CC[C@@H]2[C@]1(C)CC=C1C=C3C=C[C@@H](N(C)C)C[C@]34CC[C@@]12O4 (stereo not given in full) [CORTISTATIN F] | 10.8 | 4 | 4.1 | 1.9 |
| 3.8 | Cc1cnccc1/C=C/C(C)[C@H]1CC[C@@H]2[C@]1(C)CCC1=CC3=CC[C@@H](N(C)C)C[C@]34CC[C@@]12O4 (stereo not given in full) [CORTISTATIN G] | 8.9 | 4 | 2.9 | 0.8 |
| 2.7 | Cc1cnccc1CCC(C)[C@H]1CC[C@@H]2[C@]1(C)CCC1=CC3=CC[C@@H](N(C)C)C[C@]34CC[C@@]12O4 (stereo not given in full) [CORTISTATIN H] | 2.3 | 2.2 | 2.7 | 0.35 |
| 3.3 | CN(C)[C@@H]1C=CC2=CC3=CC[C@]4(C)[C@@H](c5ccc6ccncc6c5)CC[C@H]4[C@@]34CC[C@]2(C1)O4 [CORTISTATIN J] | 9.1 | 3.3 | 2.4 | 0.008 |
| 3.9 | CN(C)[C@@H]1CC=C2C=C3CC[C@]4(C)[C@@H](c5ccc6ccncc6c5)CC[C@H]4[C@@]34CC[C@]2(C1)O4 [CORTISTATIN K] | 10.2 | 3 | 2.5 | 0.04 |
| 4.3 | CN(C)[C@H]1C[C@@]23CC[C@@]4(O2)C(=CC3=C[C@@H]1O)CC[C@]1(C)[C@@H](c2ccc3ccncc3c2)CC[C@H]14 [CORTISTATIN L] | 14 | 2.8 | 2.4 | 0.023 |
